# Marks after values point to notes of the source that are not given here.
# Experiments:
# Assay type in all cases: in vivo
# [1] = system: winter oilseed rape; assay: Field experiment, winter oilseed rape, foliar spray; details: 25 μM foliar spray, BBCH 50
# Experimental: (§1) All field experiments were done according to criteria for Good Experimental Practices. Six repetitions (10 m^2 each) were used per one variant. Field trials were not treated by growth regulators and fungicides, except of applied compound 1-furfuryl-[1,2,3]thiadiazol-5-yl-urea. N-furfuryl-N′-1,2,3-thiadiazol-5-yl-urea was applied once at the precise time (extension growth BBCH 50), by foliar spray at a concentration of 25 μM. For each variant at least 50 plants were used to obtain morphology parameters. Statistical evaluation was executed in stat. program PAST v. 2.17c.
# [2] = system: winter wheat, Triticum aestivum cv. Hereward; assay: Drought stress tolerance of wheat plants; details: 100 nM aqueous solution, drought stress last 20 days, 30 days after planting; untreated 37%
# Experimental: To investigate the effect of 1-(2-methoxy-ethyl)-3-[1,2,3]thiadiazol-5-yl-urea and 1-furfuryl-[1,2,3]thiadiazol-5-yl-urea to drought-induced senescence, seeds of winter wheat, Triticum aestivum cv. Hereward, were washed under running water for 24 hours and then sown into trays with perlite (30×40 cm) and soaked by water, or 100 nM aqueous solution of 1-(2-methoxy-ethyl)-3-[1,2,3]thiadiazol-5-yl-urea or 1-furfuryl-[1,2,3]thiadiazol-5-yl-urea. The trays were placed in a growth chamber at 25° C. with 8/16 hours light/dark cycle at intensity […]. Plants were under drought stress last 20 days. 30 Days after planting it was counted how many plants survived on individual trays.
# [3] = system: spring barley; assay: Field experiments, spring barley, years 2014 and 2015, foliar spray
# Experimental: as §1
# All field experiments were done according to criteria for Good Experimental Practices as described in example 17. N-furfuryl-N′-1,2,3-thiadiazol-5-yl-urea was applied once at the precise time (extension growth BBCH 50), by foliar spray at a concentration of 25 μM in a year 2014 and at a concentration of 5 μM in a year 2015. For each variant at least 50 plants were used to obtain morphology parameters. Statistical evaluation was executed in stat. program PAST v. 2.17c.
# [4] = system: winter wheat, Triticum aestivum cv. Hereward; assay: Saline stress-induced senescence of wheat plants; details: 100 nM, 75 mM NaCl, assessed 25 and 30 days after planting
# Experimental: To investigate the effect of compound 6 to saline-induced senescence seeds of winter wheat, Triticum aestivum cv. Hereward, were washed under running water for 24 hours and then sown to 1 L containers on perlite soaked with water or 100 nM water solution of […]. Containers were placed in the growth chamber at 25° C. with a 16/8 h light period at 50 μmol·m^−2·s^−1. Seven days after planting the plants were treated by 75 mM NaCl solution. Plants were allowed to grow and 25 and 30 days after planting the result was assessed.
# [5] = system: spring barley (Hordeum vulgare), malting variety Bojos; assay: Field experiment, spring barley, foliar spraying; details: 5 μM foliar; for Grain yield: control 7.653; for Number of grains/spike: control 23.49; for Thousand grain weight: control 45.85; for Number of tillers: control 4.61; for Number of spikes/m^2: control 700.4
# Text: The initial field experiments were done with spring barley (Hordeum vulgare), malting variety Bojos in field plots of University of Palacky in Olomouc. All field experiments were done according to criteria for Good Experimental Practices. Six repetitions (each 10 m^2) were used per one variant, sowing rate was 3.5 millions of germinated grains per hectare. Field trials were not treated by growth regulators and fungicides, except of applied compounds. Compounds 1-(2-methoxy-ethyl)-3-[1,2,3]thiadiazol-5-yl-urea and 1-(2-chloro-ethyl)-3-[1,2,3]thiadiazol-5-yl-urea were applied once in indicated time (Tillering, BBCH 23-25 or Inflorescence emergence, BBCH 51-53) by foliar spraying in concentration 5 μM. For each variant at least 50 plants were used to obtain morphology parameters. Statistical evaluation was executed in stat. program PAST v. 2.17c.
# [6] = Inflorescence emergence, BBCH 51-53
# [7] = Tillering, BBCH 23-25, listed as compound 6
Compound,plants survived [2] [%],"Grain yield, % of control [5, 6] [%]","Number of grains/spike, % of control [5, 6] [%]","Thousand grain weight, % of control [5, 6] [%]","Grain yield [5, 6] [t/ha]","Number of grains/spike [5, 6]","Thousand grain weight [5, 6] [g]","Grain yield, % of control ([5]; Tillering, BBCH 23-25) [%]","Number of grains/spike, % of control ([5]; Tillering, BBCH 23-25) [%]","Number of spikes/m^2, % of control ([5]; Tillering, BBCH 23-25)","Number of tillers, % of control ([5]; Tillering, BBCH 23-25)","Thousand grain weight, % of control ([5]; Tillering, BBCH 23-25) [%]","Number of tillers ([5]; Tillering, BBCH 23-25)","Grain yield ([5]; Tillering, BBCH 23-25) [t/ha]","Number of grains/spike ([5]; Tillering, BBCH 23-25)","Thousand grain weight ([5]; Tillering, BBCH 23-25) [g]","Number of spikes/m^2 ([5]; Tillering, BBCH 23-25)",also measured
"O=C(NCc1ccco1)Nc1cnns1 [Compound 84, N-furfuryl-N′-1,2,3-thiadiazol-5-yl-urea]",71,,,,,,,,,,,,,,,,,"WTK (weight of a thousand kernels) ([1]; control 4.35): 4.8 g; Seed yield ([1]; control 4.994): 6.038 t/ha; WTK, % of control ([1]; listed as Comp. 84): 110.3%; WTK, % of control ([3]; Year 2014, 25 μM foliar spray): 100.06%; Seed yield ([3]; Year 2014, 25 μM foliar spray, control 7.65): 8.02 t/ha; grains per ear ([3]; Year 2014, 25 μM foliar spray, control 23.5): 24.6; WTK ([3]; Year 2014, 25 μM foliar spray, control 45.85): 45.88 g; Seed yield ([3]; Year 2015, 5 μM foliar spray, control 7.01): 7.49 t/ha"
"COCCNC(=O)Nc1cnns1 [Compound 6, 1-(2-methoxy-ethyl)-3-[1,2,3]thiadiazol-5-yl-urea]",82,103.6,99.5,102.0,7.927,23.37,46.77,111.3,103.3,110.3* %,115.7* %,102.9,5.3*,8.517,24.27,47.18,772.4*,"effect on saline stress-induced senescence (in words) [4]: significantly delays stress-induced senescence; Number of spikes/m^2, % of control [5, 7]: 110.3%; Number of tillers, % of control [5, 7]: 115.7%"
"O=C(NCCCl)Nc1cnns1 [Compound 65, 1-(2-Chloro-ethyl)-3-[1,2,3]thiadiazol-5-yl-urea]",,109.7,102.9,100.2,8.398,24.17,45.96,109.3,103.9,109.2* %,109.2%,99.0,5.0,8.362,24.42,45.35,764.8*,"Number of spikes/m^2, % of control ([5]; Tillering, BBCH 23-25, listed as compound 65): 109.2%"

# From patent US9993002B2, “1,2,3-thiadiazol-5yl-urea derivatives, use thereof for regulating plant senescence and preparations containing these derivatives” (USTAV EXPERIMENTALNI BOTANIKY AV CR, V.V.I., priority 2014, dated 2018)
